# Reference: ChEMBL document CHEMBL1909046, “DrugMatrix in vitro pharmacology data”
# Tested on: not listed separately
# Test: DRUGMATRIX: Sodium/nucleoside co-transporter radioligand binding (ligand: nitrobenzylthioinosine)
# Format: cell membranes, Cavia porcellus, Dunkin-Hartley, Cerebral cortex, Membrane
# Details: Not Active = under 50% inhibition at 10 µM
Structure (SMILES),IC50,Ki
Cc1cc(=O)n(-c2ccccc2)n1C [ANTIPYRINE],Not Active,Not Active
CN1C(=O)COc2c(C(=O)NC3CN4CCC3CC4)cc(Cl)cc21 (stereo not given) [AZASETRON],Not Active,Not Active
C[C@H]1C[C@H]2[C@@H]3CCC4=CC(=O)C=C[C@]4(C)[C@@]3(Cl)[C@@H](O)C[C@]2(C)[C@@]1(O)C(=O)CO [BECLOMETHASONE],Not Active,Not Active
CCOC(=O)[C@H](CCc1ccccc1)N[C@H]1CCc2ccccc2N(CC(=O)O)C1=O [BENAZEPRIL],Not Active,Not Active
Nc1c(CC(=O)O)cccc1C(=O)c1ccc(Br)cc1 [BROMFENAC],Not Active,Not Active

# Target: Aldo-keto reductase family 1 member B1 (Rattus norvegicus, UniProt P07943);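 also: inhibition of aldose reductase enzyme activity, measured with DL-glyceraldehyde as the substrate; in other assays of this panel Not Active means under 50% inhibition at 10 µM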
# Test: biochemical
# Format: tissue-based, Lens of camera-type eye
# Details: not given
row,Structure (SMILES),IC50
1,Cc1cc(=O)n(-c2ccccc2)n1C [ANTIPYRINE],Not Active
2,CN1C(=O)COc2c(C(=O)NC3CN4CCC3CC4)cc(Cl)cc21 (stereo not given) [AZASETRON],Not Active
3,C[C@H]1C[C@H]2[C@@H]3CCC4=CC(=O)C=C[C@]4(C)[C@@]3(Cl)[C@@H](O)C[C@]2(C)[C@@]1(O)C(=O)CO [BECLOMETHASONE],Not Active
4,CCOC(=O)[C@H](CCc1ccccc1)N[C@H]1CCc2ccccc2N(CC(=O)O)C1=O [BENAZEPRIL],Not Active
5,Nc1c(CC(=O)O)cccc1C(=O)c1ccc(Br)cc1 [BROMFENAC],Not Active

# Target: T1, Type-2 angiotensin II receptor (Homo sapiens, UniProt P50052); also: in other assays of this panel Not Active means under 50% inhibition at 10 µM
# T1 sequence (P50052 whole entry): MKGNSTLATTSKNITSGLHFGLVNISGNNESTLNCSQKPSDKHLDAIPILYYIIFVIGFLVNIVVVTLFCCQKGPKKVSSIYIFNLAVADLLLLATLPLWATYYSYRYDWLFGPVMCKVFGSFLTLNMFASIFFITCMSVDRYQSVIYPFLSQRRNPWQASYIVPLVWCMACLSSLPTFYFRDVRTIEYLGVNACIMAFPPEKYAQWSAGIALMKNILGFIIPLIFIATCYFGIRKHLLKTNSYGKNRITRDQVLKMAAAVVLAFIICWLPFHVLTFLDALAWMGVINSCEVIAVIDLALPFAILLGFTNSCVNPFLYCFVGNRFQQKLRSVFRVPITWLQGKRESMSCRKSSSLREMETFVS
# Test: not given
# Format: cell-based
# Details: cho-k1
row,Structure (SMILES),IC50
1,Cc1cc(=O)n(-c2ccccc2)n1C [ANTIPYRINE],Not Active
2,CN1C(=O)COc2c(C(=O)NC3CN4CCC3CC4)cc(Cl)cc21 (stereo not given) [AZASETRON],Not Active
3,C[C@H]1C[C@H]2[C@@H]3CCC4=CC(=O)C=C[C@]4(C)[C@@]3(Cl)[C@@H](O)C[C@]2(C)[C@@]1(O)C(=O)CO [BECLOMETHASONE],Not Active
4,CCOC(=O)[C@H](CCc1ccccc1)N[C@H]1CCc2ccccc2N(CC(=O)O)C1=O [BENAZEPRIL],Not Active
5,Nc1c(CC(=O)O)cccc1C(=O)c1ccc(Br)cc1 [BROMFENAC],Not Active

# Target: T2, B2 bradykinin receptor (Homo sapiens, UniProt P30411); also: in other assays of this panel Not Active means under 50% inhibition at 10 µM
# T2 sequence (P30411 whole entry): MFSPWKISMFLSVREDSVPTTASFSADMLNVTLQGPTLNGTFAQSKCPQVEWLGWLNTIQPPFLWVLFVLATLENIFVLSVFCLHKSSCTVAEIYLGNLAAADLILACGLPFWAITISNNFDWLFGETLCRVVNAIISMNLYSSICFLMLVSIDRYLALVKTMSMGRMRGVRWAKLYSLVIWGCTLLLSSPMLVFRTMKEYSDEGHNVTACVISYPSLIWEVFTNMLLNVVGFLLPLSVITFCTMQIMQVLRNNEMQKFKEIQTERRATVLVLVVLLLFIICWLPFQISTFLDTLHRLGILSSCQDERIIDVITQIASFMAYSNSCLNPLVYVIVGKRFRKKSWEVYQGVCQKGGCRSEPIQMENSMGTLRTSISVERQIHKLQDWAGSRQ
# Test: not given
# Format: cell membranes, Membrane
# Details: chem-1
row,Structure (SMILES),IC50
1,Cc1cc(=O)n(-c2ccccc2)n1C [ANTIPYRINE],Not Active
2,CN1C(=O)COc2c(C(=O)NC3CN4CCC3CC4)cc(Cl)cc21 (stereo not given) [AZASETRON],Not Active
3,C[C@H]1C[C@H]2[C@@H]3CCC4=CC(=O)C=C[C@]4(C)[C@@]3(Cl)[C@@H](O)C[C@]2(C)[C@@]1(O)C(=O)CO [BECLOMETHASONE],Not Active
4,CCOC(=O)[C@H](CCc1ccccc1)N[C@H]1CCc2ccccc2N(CC(=O)O)C1=O [BENAZEPRIL],Not Active
5,Nc1c(CC(=O)O)cccc1C(=O)c1ccc(Br)cc1 [BROMFENAC],Not Active

# Target: T3, C-C chemokine receptor type 4 (Homo sapiens, UniProt P51679); also: in other assays of this panel Not Active means under 50% inhibition at 10 µM
# T3 sequence (P51679 whole entry): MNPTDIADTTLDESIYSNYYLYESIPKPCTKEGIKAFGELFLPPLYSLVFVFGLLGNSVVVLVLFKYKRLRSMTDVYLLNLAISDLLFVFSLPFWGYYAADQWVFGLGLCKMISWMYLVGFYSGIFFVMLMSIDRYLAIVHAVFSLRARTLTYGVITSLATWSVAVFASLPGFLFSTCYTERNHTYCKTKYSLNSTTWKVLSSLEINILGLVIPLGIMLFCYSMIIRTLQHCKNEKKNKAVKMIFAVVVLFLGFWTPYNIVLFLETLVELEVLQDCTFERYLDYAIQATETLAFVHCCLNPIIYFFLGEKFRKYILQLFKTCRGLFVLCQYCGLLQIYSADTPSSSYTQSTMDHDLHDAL
# Test: not given
# Format: cell membranes, Membrane
# Details: chem-1
row,Structure (SMILES),IC50
1,Cc1cc(=O)n(-c2ccccc2)n1C [ANTIPYRINE],Not Active
2,CN1C(=O)COc2c(C(=O)NC3CN4CCC3CC4)cc(Cl)cc21 (stereo not given) [AZASETRON],Not Active
3,C[C@H]1C[C@H]2[C@@H]3CCC4=CC(=O)C=C[C@]4(C)[C@@]3(Cl)[C@@H](O)C[C@]2(C)[C@@]1(O)C(=O)CO [BECLOMETHASONE],Not Active
4,CCOC(=O)[C@H](CCc1ccccc1)N[C@H]1CCc2ccccc2N(CC(=O)O)C1=O [BENAZEPRIL],Not Active
5,Nc1c(CC(=O)O)cccc1C(=O)c1ccc(Br)cc1 [BROMFENAC],Not Active

# Tested on: not listed separately
# Test: DRUGMATRIX: Leukotriene, BLT (LTB4) radioligand binding (ligand: [3H]LTB4)
# Format: cell membranes, Membrane
# Details: u-937; Not Active = under 50% inhibition at 10 µM
Structure (SMILES),IC50,Ki
Cc1cc(=O)n(-c2ccccc2)n1C [ANTIPYRINE],Not Active,Not Active
CN1C(=O)COc2c(C(=O)NC3CN4CCC3CC4)cc(Cl)cc21 (stereo not given) [AZASETRON],Not Active,Not Active
C[C@H]1C[C@H]2[C@@H]3CCC4=CC(=O)C=C[C@]4(C)[C@@]3(Cl)[C@@H](O)C[C@]2(C)[C@@]1(O)C(=O)CO [BECLOMETHASONE],Not Active,Not Active
CCOC(=O)[C@H](CCc1ccccc1)N[C@H]1CCc2ccccc2N(CC(=O)O)C1=O [BENAZEPRIL],Not Active,Not Active
Nc1c(CC(=O)O)cccc1C(=O)c1ccc(Br)cc1 [BROMFENAC],Not Active,Not Active

# Target: Platelet-activating factor receptor (Homo sapiens, UniProt P25105); also: in other assays of this panel Not Active means under 50% inhibition at 10 µM
# Sequence (P25105 whole entry): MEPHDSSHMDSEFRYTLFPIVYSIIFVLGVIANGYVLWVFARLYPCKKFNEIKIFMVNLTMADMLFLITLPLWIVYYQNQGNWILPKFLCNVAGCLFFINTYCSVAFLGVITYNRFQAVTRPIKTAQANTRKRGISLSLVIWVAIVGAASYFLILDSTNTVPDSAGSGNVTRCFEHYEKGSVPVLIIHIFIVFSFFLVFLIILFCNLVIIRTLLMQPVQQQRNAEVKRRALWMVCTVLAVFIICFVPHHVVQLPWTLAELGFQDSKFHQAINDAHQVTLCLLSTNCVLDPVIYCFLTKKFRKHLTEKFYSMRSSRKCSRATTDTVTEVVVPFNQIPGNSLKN
# Test: not given
# Format: tissue-based
# Details: not given
row,Structure (SMILES),IC50
1,Cc1cc(=O)n(-c2ccccc2)n1C [ANTIPYRINE],Not Active
2,CN1C(=O)COc2c(C(=O)NC3CN4CCC3CC4)cc(Cl)cc21 (stereo not given) [AZASETRON],Not Active
3,C[C@H]1C[C@H]2[C@@H]3CCC4=CC(=O)C=C[C@]4(C)[C@@]3(Cl)[C@@H](O)C[C@]2(C)[C@@]1(O)C(=O)CO [BECLOMETHASONE],Not Active
4,CCOC(=O)[C@H](CCc1ccccc1)N[C@H]1CCc2ccccc2N(CC(=O)O)C1=O [BENAZEPRIL],Not Active
5,Nc1c(CC(=O)O)cccc1C(=O)c1ccc(Br)cc1 [BROMFENAC],Not Active

# Target: T4, Angiotensin-converting enzyme (Oryctolagus cuniculus, UniProt P12822)
# T4 sequence (P12822 whole entry): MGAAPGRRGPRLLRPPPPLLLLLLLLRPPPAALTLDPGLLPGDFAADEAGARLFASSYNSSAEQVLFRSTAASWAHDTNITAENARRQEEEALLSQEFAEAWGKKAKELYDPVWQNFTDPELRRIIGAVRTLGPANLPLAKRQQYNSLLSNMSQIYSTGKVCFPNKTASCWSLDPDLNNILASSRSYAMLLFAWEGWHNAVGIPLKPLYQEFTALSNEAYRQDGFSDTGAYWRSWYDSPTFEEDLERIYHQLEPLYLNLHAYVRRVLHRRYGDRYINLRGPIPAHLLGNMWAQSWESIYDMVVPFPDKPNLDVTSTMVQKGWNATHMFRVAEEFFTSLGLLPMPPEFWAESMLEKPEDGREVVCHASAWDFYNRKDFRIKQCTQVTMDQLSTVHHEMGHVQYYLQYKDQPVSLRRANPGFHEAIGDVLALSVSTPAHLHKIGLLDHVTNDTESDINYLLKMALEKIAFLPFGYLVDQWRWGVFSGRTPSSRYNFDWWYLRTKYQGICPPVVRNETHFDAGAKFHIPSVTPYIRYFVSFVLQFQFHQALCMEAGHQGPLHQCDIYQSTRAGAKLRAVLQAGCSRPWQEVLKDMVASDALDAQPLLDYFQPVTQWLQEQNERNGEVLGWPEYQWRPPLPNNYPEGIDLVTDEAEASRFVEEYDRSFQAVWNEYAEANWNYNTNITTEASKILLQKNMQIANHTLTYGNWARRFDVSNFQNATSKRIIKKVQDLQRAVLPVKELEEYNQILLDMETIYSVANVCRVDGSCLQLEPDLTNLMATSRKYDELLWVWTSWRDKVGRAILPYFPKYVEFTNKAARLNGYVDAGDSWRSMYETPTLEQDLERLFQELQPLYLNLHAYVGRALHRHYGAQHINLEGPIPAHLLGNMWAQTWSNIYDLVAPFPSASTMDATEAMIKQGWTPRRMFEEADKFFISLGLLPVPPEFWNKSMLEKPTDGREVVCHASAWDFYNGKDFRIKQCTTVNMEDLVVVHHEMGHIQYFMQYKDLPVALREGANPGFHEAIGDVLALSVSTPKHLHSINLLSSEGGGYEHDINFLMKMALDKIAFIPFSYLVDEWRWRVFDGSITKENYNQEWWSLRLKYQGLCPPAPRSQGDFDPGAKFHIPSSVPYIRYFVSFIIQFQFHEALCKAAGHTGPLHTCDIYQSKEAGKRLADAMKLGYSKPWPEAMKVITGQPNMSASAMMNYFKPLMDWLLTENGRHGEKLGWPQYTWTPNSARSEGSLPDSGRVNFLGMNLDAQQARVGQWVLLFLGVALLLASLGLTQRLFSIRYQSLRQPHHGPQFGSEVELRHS
# Test: not given
# Format: tissue-based, Lung
# Details: not given
row,Structure (SMILES),IC50
1,Cc1cc(=O)n(-c2ccccc2)n1C [ANTIPYRINE],Not Active
2,CN1C(=O)COc2c(C(=O)NC3CN4CCC3CC4)cc(Cl)cc21 (stereo not given) [AZASETRON],Not Active
3,C[C@H]1C[C@H]2[C@@H]3CCC4=CC(=O)C=C[C@]4(C)[C@@]3(Cl)[C@@H](O)C[C@]2(C)[C@@]1(O)C(=O)CO [BECLOMETHASONE],Not Active
4,CCOC(=O)[C@H](CCc1ccccc1)N[C@H]1CCc2ccccc2N(CC(=O)O)C1=O [BENAZEPRIL],Not Active
5,Nc1c(CC(=O)O)cccc1C(=O)c1ccc(Br)cc1 [BROMFENAC],Not Active

# Target: Mitogen-activated protein kinase 3 (Homo sapiens, UniProt P27361)
# Sequence (P27361 whole entry): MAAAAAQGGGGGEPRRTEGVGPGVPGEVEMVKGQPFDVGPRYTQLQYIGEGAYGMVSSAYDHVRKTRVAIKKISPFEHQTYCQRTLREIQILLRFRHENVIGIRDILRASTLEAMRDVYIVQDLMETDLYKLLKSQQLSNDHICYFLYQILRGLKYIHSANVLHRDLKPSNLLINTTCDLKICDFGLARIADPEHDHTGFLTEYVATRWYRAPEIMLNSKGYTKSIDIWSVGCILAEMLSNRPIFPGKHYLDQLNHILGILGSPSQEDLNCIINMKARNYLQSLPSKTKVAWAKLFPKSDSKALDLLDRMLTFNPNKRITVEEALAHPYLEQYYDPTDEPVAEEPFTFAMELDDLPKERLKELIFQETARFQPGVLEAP
# Test: DRUGMATRIX: Protein Serine/Threonine Kinase, ERK1 enzyme inhibition (substrate: Myelin Basic Protein)
# Design: species or system Escherichia coli
# Details: Not Active = under 50% inhibition at 10 µM
row,Structure (SMILES),IC50
1,Cc1cc(=O)n(-c2ccccc2)n1C [ANTIPYRINE],Not Active
2,CN1C(=O)COc2c(C(=O)NC3CN4CCC3CC4)cc(Cl)cc21 (stereo not given) [AZASETRON],Not Active
3,C[C@H]1C[C@H]2[C@@H]3CCC4=CC(=O)C=C[C@]4(C)[C@@]3(Cl)[C@@H](O)C[C@]2(C)[C@@]1(O)C(=O)CO [BECLOMETHASONE],Not Active
4,CCOC(=O)[C@H](CCc1ccccc1)N[C@H]1CCc2ccccc2N(CC(=O)O)C1=O [BENAZEPRIL],Not Active
5,Nc1c(CC(=O)O)cccc1C(=O)c1ccc(Br)cc1 [BROMFENAC],Not Active
